According to PMC3714282, “Pharmacometabolomics of Response to Sertraline and to Placebo in Major Depressive Disorder – Possible Role for Methoxyindole Pathway” (PLoS ONE, 2013):

Tests used:
outpatients with MDD = assay: Randomized double-blind 4-week trial, response by 17-item Hamilton Rating Scale for Depression (HAMD17); format: in vivo, human
Text: The 75 patients in this report were a subset of the 165 patients who entered a randomized, double-blind, flexible dosing, placebo-controlled study performed at 12 clinical sites. […] Subjects selected for this study were those with serum samples and HAMD17 scores available at baseline and 1 week and at 4 weeks (+/−1 week) after treatment. Finally, the subset of participants in this study largely overlaps with those used in our previous study.
Study participants were outpatients, 18–65 years of age, from various clinical sites across the United States. […] A complete description of the inclusion and exclusion used in this study can be found in Table S1. The study protocol was developed in accordance with the principles of the Declaration of Helsinki. All patients provided written informed consent. The study was sponsored and monitored by Pfizer, Inc. Each site's institutional review board approved and oversaw the study. The primary outcome measure was the HAMD17, used to assess depressive symptom severity. Measures were gathered at baseline, and weeks 1 and 4 of treatment at the patient's visits. Serum samples were collected using standard protocol at baseline, week 1 and week 4 of treatment at the clinic visits. Whole blood was collected in serum collection tubes and inverted 5–8 times. Serum samples were allowed to clot at room temperature for 60 minutes and then centrifuged at 1,300×g for 15 minutes. Following centrifugation supernatant was frozen at −80°C until analysis.
(§1) Signatures of response to sertraline and placebo were identified by using paired t-tests to compare week 4 metabolite levels to baseline metabolite levels in the responders and non-responders to therapy. […] These analyses were also performed to evaluate changes in ratios of individual metabolites within (e.g., 5-HT/5-HTP) and between branches of tryptophan pathway (e.g., KYN/MEL).

[1] = test system: 5-Methoxytryptamine (5-MTPM); assay: GCTOF-MS measurement of serum 5-Methoxytryptamine (5-MTPM): change from baseline at week 1 and week 4; format: in vivo, human; conditions: for Change in 5-MTPM levels / Change 5-MTPM: serum; for Change in 5-MTPM levels: four weeks; for Change 5-MTPM: log-transformed concentration
Description: Samples were analyzed using a liquid chromatography electrochemical array (LCECA) platform that has been extensively validated and used in our prior studies in neurodegenerative and psychiatric disorders [30]–[34]. The method includes multiple compounds from the tyrosine, tryptophan, sulfur amino acids and purine pathways, and markers of oxidative stress and protection (for the list of metabolites and abbreviations see Table 1). Levels of 5-Methoxytryptamine (5-MTPM) were measured using a gas chromatography time-of-flight-mass spectrometry (GCTOF-MS) platform. Samples were prepared for analysis as previously described. During the sample preparation, pools were created from equal volumes of subaliquots of all samples. Concentrations of metabolites in the individual samples were expressed as a percentage of the concentration of those metabolites in the averaged pool.
Data preprocessing: We first removed the metabolites that have more than 40% missing values. […] Principal components analysis (PCA; SIMCA-P+12.0) was used to identify outliers. The analysis was performed for each time point. […] Subjects with ≥3 standard deviations away from the center of data cloud within two principal components (PC's) scores scatter plot were considered outliers and were removed from further analysis.
These analyses were conducted separately for the sertraline and placebo groups. Between groups t-tests were used to compare baseline to one week and baseline to four week change scores between the sertraline and placebo groups.
as §1

CN[C@H]1CC[C@@H](c2ccc(Cl)c(Cl)c2)c2ccccc21 [Sertraline, sertraline]
APC, average percent change in HAMD17 score (outpatients with MDD; Female patients): Female: APC= -55%
APC, average percent change in HAMD17 score (outpatients with MDD; Non-White patients): Non-White: APC= -52%
response rate (responders: ≥50% reduction in HAMD17 scores) (outpatients with MDD; after four weeks, 21/35 patients, 50-150 mg/day): 60%
Change of 5-MTPM (average change of log-transformed concentration) ([1]; after four week of treatment, non-responders): -0.11
Change of 5-MTPM (average change of log-transformed concentration) ([1]; after four week of treatment, responders): -0.42
Change of 5-MTPM (average change of log-transformed concentration) ([1]; after one week of treatment, non-responders): -0.052
Change in 5-MTPM levels ([1]; good responders to sertraline): significant decrease
Change in 5-MTPM levels ([1]; non-responders to sertraline): not significantly changed
Change 5-MTPM ([1]; after four weeks, sertraline group): −0.29
Change 5-MTPM ([1]; after one week, responders to sertraline): -0.21
